Entries after “also recorded” stand apart in the source; their conditions may differ.
Key:
JEG-3 cells = assay: CellTiter-Blue cell viability assay, JEG-3 cells; type: cell-based, human; conditions: for JEG3 cell death, single agent: CellTitre Blue, increasing doses, 48 and 72 hours, FIGS. 7A, 8A
Procedure: (§1) JEG-3 and BeWo cells were cultured in DMEM/F-12 medium containing L-glutamine (Invitrogen) supplemented with 10% fetal calf serum (ICP Biologicals). For treatments with methotrexate (Sigma) or Gefitinib (LC Laboratories) media was replaced with media containing 1% FCS.
(§2) Viability was analysed using the CellTiter-Blue® Cell Viability Assay (Promega).
(§3) Two different placenta-derived trophoblast-like human choriocarcinoma cell lines as well as isolated human first trimester extravillous trophoblast cells were incubated with methotrexate±gefitinib at various concentrations for 72 hours. […] The viability of the JEG-3, BeWo and primary first trimester extravillous trophoblast cells after treatment with methotrexate and gefitinib was assessed by the CellTiter-Blue® Cell Viability Assay.
(§4) JEG-3, BeWo and primary first trimester trophoblast cells were seeded at 5000 cells per well in 96-well plates in DMEM/F-12 culture medium containing 1% foetal bovine serum and 1% penicillin/streptomycin and incubated at 37° C. in a humidified atmosphere of 5% CO2. Approximately 40 hours after seeding, drugs were added to the cells in DMEM/F-12 containing 1% foetal bovine serum. A dose of 100 μM of methotrexate (JEG-3 and primary first trimester trophoblast cells) and 200 μM of methotrexate (syncytialised BeWo cells) was used because this dose decreased cell viability by approximately 50%, as observed in initial dose-response experiments. Cells treated with vehicle (DMSO) served as control cells. In all figures, data are expressed as means±SEM. One-way ANOVA and Student's t test were used to compare means between experimental groups. Statistical significance was assumed at P values<0.05. All experiments have been repeated at least twice.

syncytialised BeWo cells = assay: CellTiter-Blue cell viability assay, syncytialised (forskolin-treated) BeWo cells; type: cell-based, human; conditions: for BeWo cell death, single agent: CellTitre Blue, increasing doses, FIGS. 7B, 8B
Procedure: as §1, §2, §3, §4
The effect of combined addition of methotrexate and gefitinib on cell viability of syncytialised BeWo cells is shown in FIG. 3. […] Methotrexate and gefitinib were administered to syncytialised (forskolin-treated) BeWo cells and cell viability determined after 72 hours by CellTiter-Blue assay.

[1] = tested on: primary first trimester extravillous trophoblast cells; assay: CellTiter-Blue cell viability assay, primary first trimester extravillous trophoblast cells; type: cell-based; conditions: Homo sapiens, 100 μM methotrexate, initial dose-response experiments, read-out: decrease in cell viability
Excerpt: 1st trimester placenta was collected from healthy women undergoing elective termination of pregnancy (amenorrhea: 8-10 weeks). This research protocol, including written consent from patients, was approved by the Southern Health Human Research and Ethics Committee. From the 1st trimester placental tissue, primary cytotrophoblast was isolated as previously described (Cartwright J E et al., (2002) Placenta 23:232-235). The inventors confirmed the purity of primary cytotrophoblast cells by immunocytochemistry for cytokeratin 7 as previously described (Paiva P et al., (2007) Endocrinology 148:5566-5572).
as §2
as §3, with “Assay. […]” for “Assay.”
Importantly, the efficacy of methotrexate±gefitinib was also assessed in primary human extravillous trophoblast cells isolated from first trimester placenta.

EGFR = molecular target: T1, EGFR (Homo sapiens, UniProt P00533); assay: Western blot of EGF induced EGFR phosphorylation in JEG3 cells; type: cell-based; conditions: pre-incubation of JEG3 cells, FIG. 5
T1 construct: endogenous in cells; host or cells: JEG3 cells
Procedure: Cells were trypsinised, washed and lysed in RIPA buffer (50 mM Tris, 150 mM NaCl, 1% triton, 0.1% SDS, 1 mM EDTA, 0.1% sodium deoxycholate, protease inhibitor cocktail, sodium vanadate) for 10 min prior to 15 min sonication and centrifugation at 4° C. to remove cellular debris. Lysates were resolved by reducing SDS-PAGE and transferred to PVDF membranes using the iBlot dry transfer system (Invitrogen).

JEG3 cells = assay: xCELLigence real-time analysis of JEG3 cell growth; type: cell-based, human; conditions: for decrease in JEG3 growth (xCELLigence): FIG. 6B
Procedure: The Real-Time Cell Analyzer (RTCA) SP instrument (Roche Diagnostics GmbH) was placed in a humidified incubator maintained at 37° C. with 5% CO2. Cells were seeded at 625-40,000 cells per well in 96-well plates (E-plate 96, Roche Diagnostics GmbH) in medium containing 1% or 10% serum. Cells were initially monitored once every 2 min for 1 h and then once every hour. After addition of treatment, cells were monitored once every 10 min for 3 h and thereafter once every hour.
[…]. By taking continuous measurements, this assay also tracks cell growth longitudinally. […].

[2] = tested on: subcutaneous JEG3 xenografts; assay: Subcutaneous JEG-3 xenograft model in SCID mice; type: in vivo; conditions: i.p.; for xenograft tumour volume at the doses chosen for combination: MTX 0.04 mg/dose, gefitinib 0.5 mg/dose; for xenograft tumour volume, single agent at different doses: days 7 and 13 (FIG. 11: days 7, 10 and 13), FIGS. 10A, 10B, 11
Procedure: 5- to 6-week-old female SCID mice (C.B-17-Igh-1^b-Prkdc^scid; Animal Resources Centre, Perth, Australia) were inoculated with JEG-3 cells (10^6 in 100 μL PBS) subcutaneously. Mice were treated starting at day 7 after JEG-3 injection with gefitinib (0.5-2 mg per dose in 50 μL DMSO), methotrexate (0.04-0.4 mg per dose in 100 μL buffer) or respective vehicle (DMSO/buffer) per intraperitoneal injection (i.p.). Xenograft volume in cubic millimeters was determined using the formula (length×width^2)/2, where length was the longest axis and width was the measurement at right angles to the length. The mice were sacrificed after 19 days, at which time we excised the xenografts, weighed and measured them, and collected blood by cardiac puncture. hCG was quantified in mouse serum using the Elegance hCG ELISA assay (Bioclone). The animal study was reviewed and approved by the Monash University Animal Welfare Committee.
A subcutaneous JEG-3 xenograft model as established in SCID mice where 1×10^6 JEG-3 cells were injected into the flanks of mice.
Once palpable, xenograft growth was monitored by measuring tumour length and width every 3 days using digital callipers. Tumour volume in mm^3 was determined using the formula […], where length was the longest axis and width being the measurement at right angles to the length. Data are expressed as average tumour volume±SEM for each treatment group.
Mean tumour volume was monitored by digital calliper measurements every 3 days. Tumour volume was determined as described above.

Akt = assay: Bio-Plex phosphoprotein assay in JEG3 cells, Akt; type: cell-based, human; conditions: JEG3 cells treated with EGF, FIG. 12A
Procedure: (§5) Cell lysates were analyzed for levels of phosphorylated Akt, p-38 MAPK, IκB-α or Erk1/2 using the Bio-Plex Phosphoprotein Assays (Bio-Rad Laboratories).
(§6) To further explore how these drugs may be acting together to enhance placental cell death, the inventors investigated the phosphorylation status of Akt, p38 mitogen-activated protein kinase (p38-MAPK), extracellular signal-regulated kinase 1/2 (ERK1/2) and IKappaB Kinase (IKB) in response to various treatments in JEG3 cells. These are key signaling molecules representing major downstream pathways of EGFR (Dutta PR & Maity A (2007) Cancer Lett 254:165-177).

[3] = tested on: caspase-cleaved cytokeratin 18; assay: M30 antibody apoptosis assay (FACS) in JEG3 cells; type: cell-based, human; conditions: 72 hours, FIG. 13C
Procedure: Cell suspensions were fixed in ice-cold methanol overnight at −20° C., washed in PBS and stained with M30 CytoDeath mouse monoclonal antibody (Sapphire Biosciences), followed by ALEXA® 488-conjugated anti-mouse antibody (Invitrogen). Samples were analyzed on a BD FACS Canto II analyser (BD Biosciences).
Therefore, the inventors performed FACS sorting using the M30 antibody that detects caspase-cleaved cytokeratin 18, a marker of early apoptosis which persists in cells (Ueno T et al., (2005) Biomed Pharmacother 59 Suppl 2, S359-362). […]. The inventors conclude that combination treatment may increase apoptosis in placental cells.

developing embryo = conditions: administered for 11 weeks to a person who conceived during a clinical trial; cited from earlier work
p38 MAPK = assay: Bio-Plex phosphoprotein assay in JEG3 cells, p38 MAPK; type: cell-based, human; conditions: FIG. 12B
Procedure: as §5, §6

ERK1/2 = assay: Bio-Plex phosphoprotein assay in JEG3 cells, ERK1/2; type: cell-based, human; conditions: FIG. 12C
Procedure: as §5, §6

IKB-α = assay: Bio-Plex phosphoprotein assay in JEG3 cells, IKB-α; type: cell-based, human; conditions: FIG. 12D
Procedure: as §5, §6

T1 sequence (P00533 25-1210): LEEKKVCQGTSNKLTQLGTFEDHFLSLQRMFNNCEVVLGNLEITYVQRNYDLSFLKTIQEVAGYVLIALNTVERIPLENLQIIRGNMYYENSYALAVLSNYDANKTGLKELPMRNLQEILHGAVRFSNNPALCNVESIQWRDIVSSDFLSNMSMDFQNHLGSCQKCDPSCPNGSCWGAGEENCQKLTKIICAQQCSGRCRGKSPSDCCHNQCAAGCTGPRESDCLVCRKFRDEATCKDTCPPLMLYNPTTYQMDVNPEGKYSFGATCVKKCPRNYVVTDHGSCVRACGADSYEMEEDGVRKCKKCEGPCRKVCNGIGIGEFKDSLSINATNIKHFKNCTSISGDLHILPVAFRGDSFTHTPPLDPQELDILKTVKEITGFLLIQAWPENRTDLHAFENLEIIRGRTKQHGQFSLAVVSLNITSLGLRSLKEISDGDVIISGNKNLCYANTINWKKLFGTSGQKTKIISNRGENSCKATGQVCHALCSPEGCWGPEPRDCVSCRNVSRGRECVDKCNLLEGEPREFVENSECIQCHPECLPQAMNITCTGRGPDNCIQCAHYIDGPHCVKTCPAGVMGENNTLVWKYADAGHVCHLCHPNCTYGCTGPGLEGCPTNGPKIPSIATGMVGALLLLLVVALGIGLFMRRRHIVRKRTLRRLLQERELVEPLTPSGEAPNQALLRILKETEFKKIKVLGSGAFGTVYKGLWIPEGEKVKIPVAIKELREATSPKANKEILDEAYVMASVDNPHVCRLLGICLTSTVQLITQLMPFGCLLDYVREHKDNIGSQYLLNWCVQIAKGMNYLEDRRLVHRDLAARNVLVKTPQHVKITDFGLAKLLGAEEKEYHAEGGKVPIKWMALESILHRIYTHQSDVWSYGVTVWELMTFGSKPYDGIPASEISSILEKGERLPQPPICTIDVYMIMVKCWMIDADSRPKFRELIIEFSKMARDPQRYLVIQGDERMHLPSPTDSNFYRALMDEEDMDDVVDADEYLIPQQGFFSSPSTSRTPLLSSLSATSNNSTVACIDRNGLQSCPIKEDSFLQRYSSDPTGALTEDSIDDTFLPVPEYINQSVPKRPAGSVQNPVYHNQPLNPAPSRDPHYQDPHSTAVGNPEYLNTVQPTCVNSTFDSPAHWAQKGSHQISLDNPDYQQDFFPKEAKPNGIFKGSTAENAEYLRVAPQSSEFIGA

With `CN(Cc1cnc2nc(N)nc(N)c2n1)c1ccc(C(=O)N[C@@H](CCC(=O)O)C(=O)O)cc1` [methotrexate] the “JEG3 cell death, single agent” value (JEG-3 cells; listed as MTX) was “in a dose dependent manner”, the “JEG3 cell death, single agent” value (JEG-3 cells; listed as methotrexate (MTX)) was “kills JEG3 cells in a dose response manner” and the cytotoxicity at 100 µM (JEG-3 cells; Homo sapiens, 100 μM methotrexate, JEG-3 cells, initial dose-response experiments, read-out: decrease in cell viability) was about 50%. For the same molecule, the “BeWo cell death, single agent” value (syncytialised BeWo cells) was “in a dose dependent manner”, the cytotoxicity at 200 µM (syncytialised BeWo cells; Homo sapiens, 200 μM methotrexate, syncytialised BeWo cells, initial dose-response experiments, read-out: decrease in cell viability) was about 50% and the cytotoxicity at 100 µM [1] was about 50%. For the same molecule, the “EGF induced EGFR phosphorylation” value (EGFR) was “partially inhibited”, the “JEG3 cell growth (xCELLigence)” value (JEG3 cells; FIG. 6, combination: gefitinib doses added to a fixed dose of MTX) was “decreased JEG3 cell growth in a dose dependent manner” and the “xenograft tumour volume at the doses chosen for combination” value [2] was “some reduction”. For the same molecule, the “xenograft tumour volume, single agent at different doses” value ([2]; listed as MTX) was “decrease in xenograft tumour volume was observed with increasing doses”, the “xenograft tumour volume, single agent at different doses” value ([2]; listed as Methotrexate (MTX)) was “regresses” and the Akt phosphorylation (Akt) was “significant increase”. For the same molecule, the “M30 staining (caspase-cleaved cytokeratin 18, early apoptosis)” value [3] was “increased expression”.
In the case of `CS(=O)(=O)CCNCc1ccc(-c2ccc3ncnc(Nc4ccc(OCc5cccc(F)c5)c(Cl)c4)c3c2)o1` [lapatinib], the “effects on the developing embryo” value (developing embryo) is listed as “no ill effects on the developing embryo”.
With `COc1cc2ncnc(Nc3ccc(F)c(Cl)c3)c2cc1OCCCN1CCOCC1` [gefitinib, N-(3-chloro-4-fluorophenyl)-7-methoxy-6-(3-morpholinopropoxy)quinazolin-4-amine] the “JEG3 cell death, single agent” value (JEG-3 cells) was “not”, the “JEG3 cell death, single agent” value (JEG-3 cells; listed as Gefitinib) was “little or no cell death” and the “BeWo cell death, single agent” value (syncytialised BeWo cells) was “little or no cell death”. For the same molecule, the “decrease in JEG3 growth (xCELLigence)” value (JEG3 cells; gefitinib 8 μM) was “small and transient”, the “decrease in JEG3 growth (xCELLigence)” value (JEG3 cells; gefitinib 2 or 4 μM) was “no” and the “xenograft tumour volume at the doses chosen for combination” value [2] was “some reduction”. For the same molecule, the “xenograft tumour volume, single agent at different doses” value [2] was “potent dose dependent reductions; also recorded: regresses”, the Akt phosphorylation (Akt) was “potently blocked” and the “EGF induced p38-MAPK phosphorylation” value (p38 MAPK) was “potently blocked”. The “EGF induced ERK1/2 phosphorylation” value (ERK1/2) was “potently blocked” and the “EGF induced IKB-α phosphorylation” value (IKB-α) was “potently blocked”.

Reference: US8858939B2, “Ectopic pregnancy treatment” (Monash University, priority 2009, dated 2014)
